Results as given in the kinase profiling compilation of Christmann-Franck et al. (2016).
Each block holds one compound with its values, some of them ahead of it.

Columns and labels:
Experiment in all cases: radiometric filter-binding kinase assay, Kinase HotSpot
Details in all cases: compound 0.5 µM; ATP 10 µM
CDK6 CCND3 (human) = CDK6 CCND3 (human) (UniProt P30281+Q00534)
CDK5 CDK5R1 p25 (human) = CDK5 CDK5R1 p25 (human) (UniProt Q00535+Q15078)
STK33 (human) = STK33 (human) (UniProt Q9BYT3)
DYRK1B (human) = DYRK1B (human) (UniProt Q9Y463)
CDK9 CCNK (human) = CDK9 CCNK (human) (UniProt O75909+P50750)
CDK1 CCNB1 (human) = CDK1 CCNB1 (human) (UniProt P06493+P14635)
CDK2 CCNA2 (human) = CDK2 CCNA2 (human) (UniProt P24941+P20248)
CDK5 CDK5R1 p35 (human) = CDK5 CDK5R1 p35 (human) (UniProt Q00535+Q15078)
CDK2 CCNE1 (human) = CDK2 CCNE1 (human) (UniProt P24941+P24864)
CDK1 CCNA2 (human) = CDK1 CCNA2 (human) (UniProt P06493+P20248)
CDK4 CCND3 (human) = CDK4 CCND3 (human) (UniProt P30281+P11802)
CDK4 CCND1 (human) = CDK4 CCND1 (human) (UniProt P24385+P11802)
MAP3K7 TAB1 (human) = MAP3K7 TAB1 (human) (UniProt O43318+Q15750)
CDK3 CCNE1 (human) = CDK3 CCNE1 (human) (UniProt Q00526+P24864)
CDK9 CCNT1 (human) = CDK9 CCNT1 (human) (UniProt P50750+O60563)
CDK7 CCNH MNAT1 (human) = CDK7 CCNH MNAT1 (human) (UniProt P50613+P51948+P51946)
LTK (human) = LTK (human) (UniProt P29376)
PRKCH (human) = PRKCH (human) (UniProt P24723)
CDK6 CCND1 (human) = CDK6 CCND1 (human) (UniProt Q00534+P24385)
[1] = tested on: SGK1 (human), O00141 [S422D]
SGK1 (human), O00141 [S422D], sequence (O00141 whole entry S422D, looked up): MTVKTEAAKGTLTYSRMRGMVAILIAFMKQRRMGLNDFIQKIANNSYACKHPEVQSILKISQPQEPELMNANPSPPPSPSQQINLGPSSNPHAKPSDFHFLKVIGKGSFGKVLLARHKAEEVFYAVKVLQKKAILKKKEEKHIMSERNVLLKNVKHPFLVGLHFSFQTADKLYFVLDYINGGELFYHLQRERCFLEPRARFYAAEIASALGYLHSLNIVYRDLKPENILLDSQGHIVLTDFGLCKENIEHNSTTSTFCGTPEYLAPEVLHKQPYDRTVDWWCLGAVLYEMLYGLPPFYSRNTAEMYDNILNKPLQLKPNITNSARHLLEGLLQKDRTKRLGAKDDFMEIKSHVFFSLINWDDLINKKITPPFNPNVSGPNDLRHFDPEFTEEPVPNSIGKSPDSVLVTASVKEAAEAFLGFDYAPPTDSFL

PRKCH (human), sequence (P24723 whole entry, looked up): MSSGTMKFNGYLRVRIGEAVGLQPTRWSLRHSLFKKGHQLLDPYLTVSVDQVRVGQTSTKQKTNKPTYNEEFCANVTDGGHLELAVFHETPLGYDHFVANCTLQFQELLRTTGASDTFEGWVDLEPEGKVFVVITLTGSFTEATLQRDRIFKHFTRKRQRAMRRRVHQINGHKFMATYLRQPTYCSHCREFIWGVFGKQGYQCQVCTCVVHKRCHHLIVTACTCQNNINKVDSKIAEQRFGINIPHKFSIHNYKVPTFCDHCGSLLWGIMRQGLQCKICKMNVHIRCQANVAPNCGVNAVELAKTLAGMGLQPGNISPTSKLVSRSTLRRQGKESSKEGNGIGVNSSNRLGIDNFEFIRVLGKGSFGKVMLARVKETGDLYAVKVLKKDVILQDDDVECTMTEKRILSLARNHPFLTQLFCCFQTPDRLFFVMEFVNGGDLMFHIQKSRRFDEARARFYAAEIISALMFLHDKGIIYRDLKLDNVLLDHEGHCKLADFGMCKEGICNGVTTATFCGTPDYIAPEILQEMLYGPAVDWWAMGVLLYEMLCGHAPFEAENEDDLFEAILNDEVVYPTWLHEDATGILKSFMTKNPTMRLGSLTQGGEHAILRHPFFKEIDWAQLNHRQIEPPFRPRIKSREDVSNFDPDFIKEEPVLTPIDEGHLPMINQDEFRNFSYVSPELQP
DYRK1B (human), sequence (Q9Y463 whole entry, looked up): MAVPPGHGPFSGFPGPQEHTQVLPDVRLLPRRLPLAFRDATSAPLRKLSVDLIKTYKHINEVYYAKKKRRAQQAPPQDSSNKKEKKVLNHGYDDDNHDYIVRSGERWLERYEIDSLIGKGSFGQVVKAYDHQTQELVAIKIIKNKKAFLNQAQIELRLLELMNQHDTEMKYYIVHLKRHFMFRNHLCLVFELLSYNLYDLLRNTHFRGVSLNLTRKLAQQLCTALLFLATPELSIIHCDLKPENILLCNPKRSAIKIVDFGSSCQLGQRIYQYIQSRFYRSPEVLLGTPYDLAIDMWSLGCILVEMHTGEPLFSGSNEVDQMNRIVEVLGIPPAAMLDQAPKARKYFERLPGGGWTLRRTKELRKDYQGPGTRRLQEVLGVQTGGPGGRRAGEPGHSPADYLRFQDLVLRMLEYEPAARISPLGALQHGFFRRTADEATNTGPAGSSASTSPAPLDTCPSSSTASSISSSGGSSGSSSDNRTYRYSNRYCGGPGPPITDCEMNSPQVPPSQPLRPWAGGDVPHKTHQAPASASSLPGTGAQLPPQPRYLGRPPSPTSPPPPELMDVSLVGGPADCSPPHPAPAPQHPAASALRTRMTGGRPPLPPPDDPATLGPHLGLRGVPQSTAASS
CDK9 CCNT1 (human), sequence (O60563 whole entry, looked up): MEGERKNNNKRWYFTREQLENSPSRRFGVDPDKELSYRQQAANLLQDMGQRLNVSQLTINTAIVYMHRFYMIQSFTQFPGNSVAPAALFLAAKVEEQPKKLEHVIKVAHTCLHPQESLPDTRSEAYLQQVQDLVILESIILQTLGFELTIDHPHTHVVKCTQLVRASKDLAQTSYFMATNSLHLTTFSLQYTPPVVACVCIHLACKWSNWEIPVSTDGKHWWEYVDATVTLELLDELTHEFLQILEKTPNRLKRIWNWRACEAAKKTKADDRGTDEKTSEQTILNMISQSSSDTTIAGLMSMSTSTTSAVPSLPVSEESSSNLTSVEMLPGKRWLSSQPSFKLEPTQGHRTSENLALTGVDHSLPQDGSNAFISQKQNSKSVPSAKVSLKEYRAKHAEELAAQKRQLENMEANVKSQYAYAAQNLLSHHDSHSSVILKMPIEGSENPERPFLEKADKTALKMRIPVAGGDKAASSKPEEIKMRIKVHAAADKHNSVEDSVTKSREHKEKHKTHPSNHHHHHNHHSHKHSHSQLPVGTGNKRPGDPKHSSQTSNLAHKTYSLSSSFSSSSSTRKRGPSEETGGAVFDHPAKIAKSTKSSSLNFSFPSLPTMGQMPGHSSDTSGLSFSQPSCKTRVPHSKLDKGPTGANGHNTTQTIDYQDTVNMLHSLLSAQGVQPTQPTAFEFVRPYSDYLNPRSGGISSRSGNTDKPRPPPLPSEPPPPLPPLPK
CDK9 CCNT1 (human), sequence (P50750 whole entry, looked up): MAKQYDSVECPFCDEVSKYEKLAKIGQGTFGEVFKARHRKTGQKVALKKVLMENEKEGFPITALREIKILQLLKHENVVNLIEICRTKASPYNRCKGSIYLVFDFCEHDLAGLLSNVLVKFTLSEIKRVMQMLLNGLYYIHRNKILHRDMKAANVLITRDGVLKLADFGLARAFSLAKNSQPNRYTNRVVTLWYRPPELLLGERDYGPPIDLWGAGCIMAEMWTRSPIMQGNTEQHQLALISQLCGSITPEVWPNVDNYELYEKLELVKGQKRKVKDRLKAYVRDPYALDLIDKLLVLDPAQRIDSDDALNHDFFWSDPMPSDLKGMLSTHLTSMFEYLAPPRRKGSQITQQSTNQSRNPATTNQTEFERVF
CDK6 CCND1 (human), sequence (P24385 whole entry, looked up): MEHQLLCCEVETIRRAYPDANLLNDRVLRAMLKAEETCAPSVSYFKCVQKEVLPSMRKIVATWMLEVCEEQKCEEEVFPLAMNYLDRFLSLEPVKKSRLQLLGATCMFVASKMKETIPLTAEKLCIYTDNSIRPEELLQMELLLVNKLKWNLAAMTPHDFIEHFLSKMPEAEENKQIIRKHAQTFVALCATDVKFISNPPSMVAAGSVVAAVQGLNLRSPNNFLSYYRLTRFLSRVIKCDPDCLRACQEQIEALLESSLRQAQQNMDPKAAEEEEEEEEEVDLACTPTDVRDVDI
CDK6 CCND1 (human), sequence (Q00534 whole entry, looked up): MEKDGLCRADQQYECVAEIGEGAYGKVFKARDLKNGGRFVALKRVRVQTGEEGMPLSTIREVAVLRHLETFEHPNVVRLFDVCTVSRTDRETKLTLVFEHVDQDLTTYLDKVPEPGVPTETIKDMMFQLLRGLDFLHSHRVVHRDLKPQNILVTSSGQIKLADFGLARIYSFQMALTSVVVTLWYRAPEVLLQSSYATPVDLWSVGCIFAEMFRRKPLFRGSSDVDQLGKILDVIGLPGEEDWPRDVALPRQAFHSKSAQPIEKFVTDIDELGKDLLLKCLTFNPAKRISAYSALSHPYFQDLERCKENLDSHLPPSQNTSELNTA
CDK5 CDK5R1 p25 (human), sequence (Q00535 whole entry, looked up): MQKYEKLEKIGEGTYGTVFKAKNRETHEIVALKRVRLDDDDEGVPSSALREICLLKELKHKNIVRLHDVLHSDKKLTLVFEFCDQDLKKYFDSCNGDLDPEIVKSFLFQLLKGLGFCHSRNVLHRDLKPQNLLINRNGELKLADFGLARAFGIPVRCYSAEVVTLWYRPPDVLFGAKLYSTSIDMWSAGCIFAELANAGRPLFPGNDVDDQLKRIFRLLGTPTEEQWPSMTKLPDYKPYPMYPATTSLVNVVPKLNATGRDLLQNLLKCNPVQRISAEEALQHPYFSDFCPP
CDK5 CDK5R1 p25 (human), sequence (Q15078 whole entry, looked up): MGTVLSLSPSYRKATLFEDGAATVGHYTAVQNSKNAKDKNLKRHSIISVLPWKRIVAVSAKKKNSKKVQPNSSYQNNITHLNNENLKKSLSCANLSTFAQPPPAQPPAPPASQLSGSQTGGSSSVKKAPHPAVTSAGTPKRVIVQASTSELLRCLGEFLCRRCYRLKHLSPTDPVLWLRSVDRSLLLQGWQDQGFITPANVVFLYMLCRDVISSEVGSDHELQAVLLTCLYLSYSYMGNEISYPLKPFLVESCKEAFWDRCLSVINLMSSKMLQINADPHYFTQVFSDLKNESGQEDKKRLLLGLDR
CDK2 CCNA2 (human), sequence (P20248 whole entry, looked up, other chains not shown): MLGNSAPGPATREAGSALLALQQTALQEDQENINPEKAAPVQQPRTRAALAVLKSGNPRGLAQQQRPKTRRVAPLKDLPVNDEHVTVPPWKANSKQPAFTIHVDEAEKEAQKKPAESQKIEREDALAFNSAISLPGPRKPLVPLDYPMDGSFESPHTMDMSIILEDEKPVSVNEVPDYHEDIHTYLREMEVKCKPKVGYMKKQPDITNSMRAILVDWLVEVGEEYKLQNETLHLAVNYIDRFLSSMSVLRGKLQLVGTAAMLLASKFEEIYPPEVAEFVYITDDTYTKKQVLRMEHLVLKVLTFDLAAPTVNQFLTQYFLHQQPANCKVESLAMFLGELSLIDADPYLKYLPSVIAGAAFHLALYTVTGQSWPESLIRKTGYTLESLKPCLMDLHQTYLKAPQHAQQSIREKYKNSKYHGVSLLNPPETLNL
CDK1 CCNA2 (human), sequence (P06493 whole entry, looked up): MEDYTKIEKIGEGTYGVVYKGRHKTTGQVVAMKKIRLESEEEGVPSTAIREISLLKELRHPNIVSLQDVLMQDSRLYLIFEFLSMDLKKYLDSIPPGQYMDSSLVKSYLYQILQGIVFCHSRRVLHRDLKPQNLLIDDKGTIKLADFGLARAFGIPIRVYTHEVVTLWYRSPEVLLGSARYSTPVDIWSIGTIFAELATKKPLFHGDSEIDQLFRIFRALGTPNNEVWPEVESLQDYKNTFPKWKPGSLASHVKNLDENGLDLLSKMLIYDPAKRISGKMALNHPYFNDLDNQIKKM
CDK1 CCNA2 (human), sequence (P20248 whole entry, looked up): as the sequence (P20248 whole entry, looked up, other chains not shown) above

Compound: CC(C)(C)n1nc(Cc2cccc3ccccc23)c2c(N)ncnc21
residual activity (CDK6 CCND3 (human)): 97.3% | residual activity (CDK5 CDK5R1 p25 (human)): 109% | residual activity (STK33 (human)): 99.7% | residual activity (DYRK1B (human)): 98.6% | residual activity (CDK9 CCNK (human)): 81.4% | residual activity (CDK1 CCNB1 (human)): 107% | residual activity (CDK2 CCNA2 (human)): 99.4% | residual activity (CDK5 CDK5R1 p35 (human)): 95.6% | residual activity (CDK2 CCNE1 (human)): 89.6% | residual activity (CDK1 CCNA2 (human)): 94.8% | residual activity (CDK4 CCND3 (human)): 95.8% | residual activity (CDK4 CCND1 (human)): 96.7% | residual activity (MAP3K7 TAB1 (human)): 99% | residual activity (CDK3 CCNE1 (human)): 87.8% | residual activity (CDK9 CCNT1 (human)): 102% | residual activity (CDK7 CCNH MNAT1 (human)): 100% | residual activity (LTK (human)): 98.2% | residual activity (PRKCH (human)): 92.1% | residual activity (CDK6 CCND1 (human)): 98.6%

residual activity [1]: 107%
Compound: O=C1Cc2c([nH]c3ccc(Br)cc23)-c2ccccc2N1

residual activity [1]: 94.8%
Compound: O=C(Nc1cccc(Nc2cc(Nc3cccc(C(F)(F)F)c3)ncn2)c1)C1CC1

residual activity [1]: 103%
Compound: O=C(Nc1cccc(Nc2nccc(Nc3cccc(C(F)(F)F)c3)n2)c1)C1CC1

residual activity [1]: 93.1%
Compound: O=C(NC(NC(=S)Nc1ccc(F)c([N+](=O)[O-])c1)C(Cl)(Cl)Cl)C(c1ccccc1)c1ccccc1 (stereo not given)

residual activity [1]: 99.5%
Compound: COc1ccc2c(c1)c(C1=C(c3c[nH]c4ccccc34)C(=O)NC1=O)cn2CCCN(C)C

residual activity [1]: 97.4%
Compound: Nc1nccc(-c2c(-c3ccc(F)cc3)ncn2C2CCNCC2)n1

residual activity [1]: 60.9%
Compound: O=C1Nc2cc(Br)ccc2/C1=C1/Nc2ccccc2/C1=N\O

residual activity [1]: 101%
Compound: c1ccc(-c2n[nH]c3c2oc2ccccc23)cc1

residual activity [1]: 103%
Compound: c1ccc(-c2n[nH]cc2-c2ccnc3ccccc23)nc1

residual activity [1]: 99.6%
Compound: Cc1cccc(-c2nc(C(C)(C)C)[nH]c2-c2ccc3c(c2)OCO3)n1

residual activity [1]: 91.3%
Compound: O=C1Nc2ccc(Cl)cc2/C1=C/c1cc(Cl)c(O)c(Cl)c1

Compound: COc1ccc2c(c[n+](C)c3c4cc5c(cc4ccc23)OCO5)c1OC
residual activity [1]: 118%

residual activity [1]: 69%
Compound: O=C1NC(=O)c2c1c1c3ccccc3[nH]c1n1cncc21

residual activity [1]: 95.2%
Compound: CNC(=O)c1cc(Oc2ccc(NC(=O)Nc3ccc(Cl)c(C(F)(F)F)c3)cc2)ccn1

residual activity [1]: 96.1%
Compound: N#CC(C#N)=C(N)/C(C#N)=C/c1ccc(O)cc1

residual activity [1]: 50.9%
Compound: CC(C)(C)c1nc2c3ccc(F)cc3c3c(=O)[nH]ccc3c2[nH]1
